According to ChEMBL document CHEMBL2440026, “Hit-to-lead optimization of 2-(1H-pyrazol-1-yl)-thiazole derivatives as a novel class of EP1 receptor antagonists” (Bioorg Med Chem Lett, 2013):
Blank lines part the entries; values can stand above or below the molecule they belong to.

What was measured:
[1] = target: T1, Prostaglandin E2 receptor EP1 subtype (Homo sapiens, UniProt P34995); assay: Antagonist activity at human EP1 receptor by reporter gene assay
T1 sequence (P34995 whole entry): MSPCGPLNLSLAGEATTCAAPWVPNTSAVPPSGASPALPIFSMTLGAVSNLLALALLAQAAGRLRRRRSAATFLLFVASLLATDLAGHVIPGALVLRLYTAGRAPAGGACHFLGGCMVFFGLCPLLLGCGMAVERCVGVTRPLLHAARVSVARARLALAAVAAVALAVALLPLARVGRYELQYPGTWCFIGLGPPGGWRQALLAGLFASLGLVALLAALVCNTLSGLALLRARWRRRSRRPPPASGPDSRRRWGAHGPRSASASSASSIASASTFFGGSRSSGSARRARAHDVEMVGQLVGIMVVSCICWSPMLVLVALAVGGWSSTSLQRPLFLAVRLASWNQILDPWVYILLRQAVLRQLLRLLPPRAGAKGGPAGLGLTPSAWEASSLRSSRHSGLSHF

[2] = target: T2, Prostaglandin E2 receptor EP1 subtype (Homo sapiens) (UniProt P34995); assay: Antagonist activity at human EP1 receptor at 1.1 uM by reporter gene assay
T2 sequence (whole entry): T1 sequence (P34995 whole entry)

Cytochrome P450 2C19 = Cytochrome P450 2C19 (Homo sapiens, UniProt P33261); assay: Inhibition of CYP2C19 (unknown origin); type: ADME
Cytochrome P450 2C9 = Cytochrome P450 2C9 (Homo sapiens, UniProt P11712); assay: Inhibition of CYP2C9 (unknown origin); type: ADME
[3] = Intrinsic clearance in human […] by LC/MS/MS analysis; type: ADME, cell-free
Cytochrome P450 3A4 = Cytochrome P450 3A4 (Homo sapiens, UniProt P08684); assay: Inhibition of CYP3A4 (unknown origin); type: ADME
Cytochrome P450 1A2 = target: T3, Cytochrome P450 1A2 (Homo sapiens, UniProt P05177); assay: Inhibition of CYP1A2 (unknown origin); type: ADME
T3 sequence (P05177 whole entry): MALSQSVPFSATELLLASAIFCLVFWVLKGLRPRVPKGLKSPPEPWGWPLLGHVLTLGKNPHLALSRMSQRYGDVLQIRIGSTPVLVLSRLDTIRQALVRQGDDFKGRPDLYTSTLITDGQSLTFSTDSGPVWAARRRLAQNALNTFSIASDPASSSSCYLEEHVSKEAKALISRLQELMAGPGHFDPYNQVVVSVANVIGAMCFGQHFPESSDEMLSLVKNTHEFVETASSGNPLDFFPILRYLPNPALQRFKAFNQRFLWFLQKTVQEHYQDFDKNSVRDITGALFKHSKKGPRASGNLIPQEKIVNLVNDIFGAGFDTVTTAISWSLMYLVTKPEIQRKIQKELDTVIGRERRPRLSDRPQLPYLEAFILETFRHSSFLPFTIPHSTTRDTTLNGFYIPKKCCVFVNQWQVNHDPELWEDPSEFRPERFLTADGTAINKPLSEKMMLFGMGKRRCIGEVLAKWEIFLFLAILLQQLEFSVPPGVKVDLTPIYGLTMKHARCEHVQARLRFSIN

Cytochrome P450 2D6 = Cytochrome P450 2D6 (Homo sapiens, UniProt P10635); assay: Inhibition of CYP2D6 (unknown origin); type: ADME
[4] = target: T4, Prostaglandin E2 receptor EP2 subtype (Homo sapiens, UniProt P43116); assay: Binding affinity to human EP2 receptor
[5] = target: T5, Prostaglandin E2 receptor EP4 subtype (Homo sapiens, UniProt P35408); assay: Antagonist activity at EP4 receptor (unknown origin)
[6] = target: T5, Prostaglandin E2 receptor EP4 subtype; assay: Binding affinity to human EP4 receptor
[7] = Intrinsic clearance in rat […] by LC/MS/MS analysis; type: ADME, cell-free
[8] = target: T4, Prostaglandin E2 receptor EP2 subtype; assay: Antagonist activity at EP2 receptor (unknown origin)
Salmonella typhimurium [9] = assay: Genotoxicity in Salmonella typhimurium TA100; type: toxicity, organism-based; conditions: salmonella enterica subsp. enterica serovar typhimurium
[10] = target: T6, Prostaglandin E2 receptor EP3 subtype (Homo sapiens, UniProt P43115); assay: Antagonist activity at EP3 receptor (unknown origin)
T6 sequence (P43115 whole entry): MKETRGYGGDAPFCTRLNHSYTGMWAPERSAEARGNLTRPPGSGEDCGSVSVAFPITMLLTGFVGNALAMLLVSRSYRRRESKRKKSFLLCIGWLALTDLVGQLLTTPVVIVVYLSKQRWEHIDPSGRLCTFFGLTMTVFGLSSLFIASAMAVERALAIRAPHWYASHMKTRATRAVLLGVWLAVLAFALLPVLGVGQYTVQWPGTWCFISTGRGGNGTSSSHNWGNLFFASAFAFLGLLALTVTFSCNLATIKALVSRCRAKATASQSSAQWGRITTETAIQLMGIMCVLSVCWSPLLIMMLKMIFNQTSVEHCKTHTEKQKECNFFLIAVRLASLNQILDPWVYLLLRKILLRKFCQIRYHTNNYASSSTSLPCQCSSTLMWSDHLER

Homo sapiens [11] = species on record: Homo sapiens; assay: Selectivity ratio of IC50 for EP3 receptor (unknown origin) to IC50 for human EP1 receptor
[12] = target: T1, Prostaglandin E2 receptor EP1 subtype; assay: Binding affinity to human EP1 receptor
Homo sapiens [13] = species on record: Homo sapiens; assay: Selectivity ratio of IC50 for EP2 receptor (unknown origin) to IC50 for human EP1 receptor
Salmonella typhimurium [14] = assay: Genotoxicity in Salmonella typhimurium TA98; type: toxicity, organism-based; conditions: salmonella enterica subsp. enterica serovar typhimurium
Homo sapiens [15] = species on record: Homo sapiens; assay: Selectivity ratio of IC50 for EP4 receptor (unknown origin) to IC50 for human EP1 receptor
[16] = target: T1, Prostaglandin E2 receptor EP1 subtype; assay: Antagonist activity at human EP1 receptor by intracellular Ca2+ release assay; type: functional, cell-based
[17] = target: T6, Prostaglandin E2 receptor EP3 subtype; assay: Binding affinity to human EP3 receptor
[18] = Apparent permeability from apical to basolateral side in MDCK cells; type: ADME, cell-based, Canis lupus familiaris; conditions: dog
[19] = Oral bioavailability in Sprague-Dawley rat at 10 mg/kg; type: ADME, organism-based; conditions: in vivo

Sequence of Cytochrome P450 3A4 (P08684 whole entry): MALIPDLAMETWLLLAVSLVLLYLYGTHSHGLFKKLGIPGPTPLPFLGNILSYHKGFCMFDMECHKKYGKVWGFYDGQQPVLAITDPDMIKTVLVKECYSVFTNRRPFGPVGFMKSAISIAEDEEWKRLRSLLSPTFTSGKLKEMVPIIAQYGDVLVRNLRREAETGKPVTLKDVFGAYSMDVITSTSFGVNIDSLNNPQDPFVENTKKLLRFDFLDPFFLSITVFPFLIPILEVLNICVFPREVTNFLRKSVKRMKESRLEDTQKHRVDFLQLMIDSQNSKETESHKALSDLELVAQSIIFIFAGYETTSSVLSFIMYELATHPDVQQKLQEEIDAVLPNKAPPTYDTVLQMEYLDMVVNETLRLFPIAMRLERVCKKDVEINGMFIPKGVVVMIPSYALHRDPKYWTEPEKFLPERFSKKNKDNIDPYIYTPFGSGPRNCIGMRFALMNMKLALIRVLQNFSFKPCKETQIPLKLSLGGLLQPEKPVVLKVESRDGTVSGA
Sequence of Cytochrome P450 2D6 (P10635 whole entry): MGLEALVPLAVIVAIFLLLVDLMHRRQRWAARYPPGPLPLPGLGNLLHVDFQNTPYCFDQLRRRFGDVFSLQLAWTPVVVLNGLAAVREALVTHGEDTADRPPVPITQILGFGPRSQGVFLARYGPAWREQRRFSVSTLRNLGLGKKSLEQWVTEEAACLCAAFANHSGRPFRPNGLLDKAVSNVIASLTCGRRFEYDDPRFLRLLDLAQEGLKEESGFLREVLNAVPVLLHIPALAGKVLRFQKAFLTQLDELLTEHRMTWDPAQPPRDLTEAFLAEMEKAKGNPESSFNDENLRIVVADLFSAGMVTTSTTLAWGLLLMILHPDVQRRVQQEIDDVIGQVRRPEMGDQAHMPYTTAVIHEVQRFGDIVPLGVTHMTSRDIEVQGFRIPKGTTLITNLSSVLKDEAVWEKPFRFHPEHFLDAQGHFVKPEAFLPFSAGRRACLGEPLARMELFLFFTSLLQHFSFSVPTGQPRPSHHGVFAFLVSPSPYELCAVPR
T4 sequence (P43116 whole entry): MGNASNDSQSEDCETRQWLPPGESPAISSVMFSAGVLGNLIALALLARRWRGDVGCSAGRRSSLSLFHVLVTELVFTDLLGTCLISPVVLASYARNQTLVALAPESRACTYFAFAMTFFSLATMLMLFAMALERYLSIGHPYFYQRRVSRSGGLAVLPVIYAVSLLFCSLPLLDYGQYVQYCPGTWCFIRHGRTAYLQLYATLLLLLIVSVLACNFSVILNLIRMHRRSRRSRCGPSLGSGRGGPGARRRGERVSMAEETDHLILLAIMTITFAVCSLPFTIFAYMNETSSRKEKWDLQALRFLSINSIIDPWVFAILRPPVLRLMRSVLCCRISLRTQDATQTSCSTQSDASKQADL
Sequence of Cytochrome P450 2C19 (P33261 whole entry): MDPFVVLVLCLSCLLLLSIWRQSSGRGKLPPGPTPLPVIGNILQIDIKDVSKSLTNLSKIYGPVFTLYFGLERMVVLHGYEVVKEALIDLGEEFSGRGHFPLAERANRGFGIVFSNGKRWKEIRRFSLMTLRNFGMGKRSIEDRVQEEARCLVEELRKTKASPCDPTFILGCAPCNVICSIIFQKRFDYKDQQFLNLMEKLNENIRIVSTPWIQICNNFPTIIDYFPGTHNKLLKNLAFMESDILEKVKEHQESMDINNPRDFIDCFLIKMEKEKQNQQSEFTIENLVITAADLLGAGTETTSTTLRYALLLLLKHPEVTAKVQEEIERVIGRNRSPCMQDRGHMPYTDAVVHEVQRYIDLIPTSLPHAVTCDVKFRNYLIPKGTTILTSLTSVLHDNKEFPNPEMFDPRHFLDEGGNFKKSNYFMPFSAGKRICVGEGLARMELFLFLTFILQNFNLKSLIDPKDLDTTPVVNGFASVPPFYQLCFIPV
T5 sequence (P35408 whole entry): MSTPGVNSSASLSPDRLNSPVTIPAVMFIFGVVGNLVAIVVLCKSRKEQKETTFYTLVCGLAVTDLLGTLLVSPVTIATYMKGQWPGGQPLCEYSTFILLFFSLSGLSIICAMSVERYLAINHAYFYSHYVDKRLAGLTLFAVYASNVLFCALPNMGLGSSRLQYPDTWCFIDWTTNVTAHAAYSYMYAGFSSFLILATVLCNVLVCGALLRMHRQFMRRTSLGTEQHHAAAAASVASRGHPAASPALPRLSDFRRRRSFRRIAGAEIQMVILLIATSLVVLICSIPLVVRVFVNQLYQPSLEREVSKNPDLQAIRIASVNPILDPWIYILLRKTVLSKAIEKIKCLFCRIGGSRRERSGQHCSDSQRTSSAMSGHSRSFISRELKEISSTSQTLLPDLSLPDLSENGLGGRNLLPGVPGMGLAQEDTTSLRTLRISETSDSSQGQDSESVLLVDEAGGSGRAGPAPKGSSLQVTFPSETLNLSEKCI
Sequence of Cytochrome P450 2C9 (P11712 whole entry): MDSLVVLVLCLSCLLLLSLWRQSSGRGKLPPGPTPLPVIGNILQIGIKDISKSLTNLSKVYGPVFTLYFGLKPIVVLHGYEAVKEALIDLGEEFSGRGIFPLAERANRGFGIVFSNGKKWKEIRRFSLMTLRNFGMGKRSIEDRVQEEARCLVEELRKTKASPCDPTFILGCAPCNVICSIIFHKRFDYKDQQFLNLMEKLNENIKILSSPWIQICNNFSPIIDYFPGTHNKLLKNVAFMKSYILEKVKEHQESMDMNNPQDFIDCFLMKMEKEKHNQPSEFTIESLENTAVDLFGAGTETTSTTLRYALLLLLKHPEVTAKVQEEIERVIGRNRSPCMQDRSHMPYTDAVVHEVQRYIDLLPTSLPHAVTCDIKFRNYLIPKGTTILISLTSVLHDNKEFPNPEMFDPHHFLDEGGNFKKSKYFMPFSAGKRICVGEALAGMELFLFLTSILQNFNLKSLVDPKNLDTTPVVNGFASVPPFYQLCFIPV

- IC50 [1]: 0.32 µM
Compound: O=C(O)c1csc(-n2nc(-c3ccc(O)cc3)cc2C(F)(F)F)n1

- inhibition [2]: 31%
Compound: O=C(O)c1csc(-n2nc(-c3ccccc3)cc2-c2ccccc2)n1

- IC50 [1]: 0.58 µM
Compound: O=C(O)c1csc(-n2nc(-c3cccc(O)c3)cc2C(F)(F)F)n1

- IC50 [1]: 0.5 µM
Compound: Cn1c(-c2ccccc2)nc(-c2nc(C(=O)O)cs2)c1-c1ccccc1

- inhibition [2]: 7%
Compound: Cc1c(-c2ccccc2)nc(-c2nc(C(=O)O)cs2)n1-c1ccccc1

- IC50 (Cytochrome P450 2C19): > 10 µM
- IC50 (Cytochrome P450 2C9): > 10 µM
- CLint scaled [3]: 28 mL/min/kg
- IC50 (Cytochrome P450 3A4): > 10 µM
- IC50 (Cytochrome P450 1A2): > 10 µM
- IC50 (Cytochrome P450 2D6): > 10 µM
- IC50 [1]: 0.32 µM
Compound: O=C(O)c1csc(-n2nc(-c3ccccc3)cc2C(F)(F)F)n1

- IC50 [1]: 0.084 µM
Compound: Cc1c(-c2ccccc2)nn(-c2nc(C(=O)O)cs2)c1C(F)(F)F

- IC50 [1]: 0.43 µM
Compound: COc1ccc(-c2cc(C(F)(F)F)n(-c3nc(C(=O)O)cs3)n2)cc1

- IC50 (Cytochrome P450 2C19): 7.14 µM
- Ki [4]: > 8 µM
- IC50 [5]: > 2.7 µM
- Ki [6]: > 2.7 µM
- CLint scaled [7]: 195 mL/min/kg
- IC50 [8]: > 8 µM
- IC50 (Cytochrome P450 2C9): > 10 µM
- IC50 [10]: > 5 µM
- Ratio IC50 (Homo sapiens [11]): 3
- CLint scaled [3]: 187 mL/min/kg
- IC50 (Cytochrome P450 3A4): > 10 µM
- Ki [12]: 8.7 µM
- Ratio IC50 (Homo sapiens [13]): 3
- Ratio IC50 (Homo sapiens [15]): 3
- IC50 (Cytochrome P450 1A2): > 10 µM
- IC50 [16]: 5.8 µM
- IC50 (Cytochrome P450 2D6): > 10 µM
- IC50 [1]: 1 µM
- Ki [17]: > 5 µM
Compound: COc1ccc(-c2cc(C(F)(F)F)nn2-c2nc(C(=O)O)cs2)cc1
- Activity (Salmonella typhimurium [9]): Non-toxic
- Activity (Salmonella typhimurium [14]): Non-toxic

- inhibition [2]: 1%
Compound: CC(C)(C)c1cc(-c2ccccc2)nn1-c1nc(C(=O)O)cs1

- IC50 (Cytochrome P450 2C19): 4.71 µM
- Ki [4]: > 8 µM
- Ki [6]: > 2.7 µM
- CLint scaled [7]: 15 mL/min/kg
- IC50 (Cytochrome P450 2C9): > 10 µM
- CLint scaled [3]: 35 mL/min/kg
- IC50 (Cytochrome P450 3A4): > 10 µM
- Ki [12]: 0.29 µM
- Papp A→B [18]: 51.6 ×10⁻⁶ cm/s
- IC50 (Cytochrome P450 1A2): 7.93 µM
- IC50 [16]: 0.5 µM
- IC50 (Cytochrome P450 2D6): > 10 µM
- IC50 [1]: 0.05 µM
- bioavailability [19]: 32%
- Ki [17]: > 5 µM
Compound: Cc1c(-c2ccccc2)nn(-c2nc(C(=O)O)cs2)c1-c1ccccc1
- Activity (Salmonella typhimurium [9]): Non-toxic
- Activity (Salmonella typhimurium [14]): Non-toxic

Compound: Cc1cc(-c2ccccc2)nn1-c1nc(C(=O)O)cs1
- inhibition [2]: 14%

- IC50 [1]: 3 µM
Compound: Cc1ccc(-c2cc(C(F)(F)F)n(-c3nc(C(=O)O)cs3)n2)cc1

- IC50 (Cytochrome P450 2C19): > 10 µM
- Ki [4]: > 8 µM
- Ki [6]: > 2.7 µM
- CLint scaled [7]: 130 mL/min/kg
- IC50 (Cytochrome P450 2C9): > 10 µM
- CLint scaled [3]: 500 mL/min/kg
- IC50 (Cytochrome P450 3A4): > 10 µM
- Ki [12]: 0.53 µM
- Papp A→B [18]: 22.8 ×10⁻⁶ cm/s
- IC50 (Cytochrome P450 1A2): > 10 µM
- IC50 [16]: 0.8 µM
- IC50 (Cytochrome P450 2D6): > 10 µM
- IC50 [1]: 0.18 µM
- Ki [17]: > 5 µM
Compound: O=C(O)c1csc(-n2nc(-c3ccccc3O)cc2C(F)(F)F)n1
- Activity (Salmonella typhimurium [9]): Non-toxic
- Activity (Salmonella typhimurium [14]): Non-toxic
